Measured values from PMC3215869 (Journal of Pharmacokinetics and Pharmacodynamics, 2011).

What was measured:
[1] = Pharmacokinetic model: typical-rat PK from satellite PK experiments, oral dosing; assay type: in vivo, rats; details: Sprague-Dawley, plasma
[2] = test system: telemetered rat (transitions between SLEEP and WAKE states); assay type: in vivo, Male Sprague–Dawley rats

SMILES: COC(=O)C(c1ccccc1)C1CCCCN1 (centres unmarked) [methylphenidate, Methylphenidate]
- Cmax ([1]; 3 mg): 44 nM
- Tmax ([1]; 3 mg): 12 s
- Cmax ([1]; 10 mg): 146 nM
- Tmax ([1]; 10 mg): 12 s
- Cmax ([1]; 30 mg): 438 nM
- Tmax ([1]; 30 mg): 12 s
- EC50 ([2]; Rattus norvegicus, intensity v (SLEEP to WAKE, clearance of sleep), plasma concentration, mean (95% confidence limits)): 288 nM
- Teq,drug (equilibrium half-life plasma to effect compartment) ([2]; delay on intensity u (acquisition of sleep), mean (95% confidence limits)): 24 (17, 40) min
- overall effect on sleep/wakefulness compared to placebo ([2]; rats, Figs. 4 and 6): tend to promote wakefulness
- relative potency in inducing sleep fragmentation, methylphenidate versus NCE ([2]; rats, from estimated maximum effects): fivefold more potent
- effect on the transitions between sleep states (intensities) ([2]; rats, sign of Emax values, Fig. 2): inhibit the transitions from one sleep status to another
